Source: patent US20130203598A1, “USE OF PHOTOSYNTHETIC PIGMENT STABILIZING AGENTS TO REGULATE RIPENING AND QUALITY IN FRUITS AND VEGETABLES” (WASHINGTON STATE UNIVERSITY, priority 2011, published 2013)

Columns and labels:
[1] = system: d'Anjou pears; assay: Fruit firmness (pressure) of d'Anjou pears treated on trees before harvest, after commercial controlled atmosphere storage; assay type: in vivo, d'Anjou pear (Pyrus communis)
Procedure: FIG. 1. Fruit pressure of Bluestim™ (glycine betaine)-treated and untreated d'Anjou pears. D'Anjou pears were treated on trees with Bluestim™ concentrations of 0, 2.5, 5, and 10 lbs/acre on Aug. 17, 2010. Pears were harvested on 9/20/2010 and stored in commercial controlled atmosphere (CA) facilities. Pears were removed from storage on Jan. 7, 2011.
FIG. 3. Fruit pressure of Bluestim™ (glycine betaine)-treated and untreated d'Anjou pears. D'Anjou pears were treated on trees with Bluestim™ concentrations of 0 and 7.5 lbs/acre before harvest. Pears were harvested during the fall and stored in commercial controlled atmosphere (CA) facilities. Pears were removed from storage approximately 3 months later. Fruit firmness and % Brix were measured approximately 1 month after removal from storage.
In addition, the degree of firmness and/or lack thereof may be used as an indicator of ripeness. Fruit firmness is generally measured as kg/cm^−2 and suitable ranges of firmness values for unripened and ripe fruit and vegetables are well-known to those of skill in the art. Firmness may be measured using a variety of instruments such as various fruit firmness testers, force gauges, etc.

[2] = system: d'Anjou pears; assay: Soluble sugars (% Brix) of d'Anjou pears treated on trees before harvest, after commercial controlled atmosphere storage; assay type: in vivo, d'Anjou pear (Pyrus communis); conditions: application before harvest, after CA storage (FIGS. 2 and 3)
Procedure: FIG. 2. Percent Brix of Bluestim™-treated pears after CA storage. Percent Brix were measured for all pear treatments after they were removed from the commercial CA storage conditions. FIG. 3. Fruit pressure of Bluestim™ (glycine betaine)-treated and untreated d'Anjou pears. D'Anjou pears were treated on trees with Bluestim™ concentrations of 0 and 7.5 lbs/acre before harvest. Pears were harvested during the fall and stored in commercial controlled atmosphere (CA) facilities. Pears were removed from storage approximately 3 months later. Fruit firmness and % Brix were measured approximately 1 month after removal from storage. In one embodiment, the methods of the invention are carried out before a fruit is “ripe”, i.e. before the fruit has a soluble solids content or “SSC” (which generally corresponds to sugar content) that is generally recognized in the art as suitable for a fruit of interest. […] Percent sugar content is typically measured, for example, in degrees Brix (symbol °Bx) which is the sugar content of an aqueous solution. […] Those of skill in the art will recognize that typical Brix values for fruit and vegetables to which glycine betaine is applied as described herein will vary widely depending on the type of fruit or vegetable, and will be able to readily able to determine suitable values. […]

[3] = use on comestible substances, consumption by humans or other animals; cited from earlier work

With `C[N+](C)(C)CC(=O)O` [glycine betaine, N,N,N-trimethylglycine] as the molecule, how does the “fruit firmness compared to untreated pears” value ([1]; application before harvest, 2.5, 5, 10 or 7.5 lbs/acre, same post-harvest storage conditions (FIGS. 1 and 3)) read?
Its value is “firmer pears compared to untreated pears”.

What about the “fruit firmness, dose dependence” value ([1]; application before harvest, 10 lbs/acre is the highest dose) of the same molecule?
The value was “increased the fruit firmness in a dose dependent manner, with applications of 10 lbs/acre yielding the firmest pears”.

What about the “reversibility of the effect on firmness and % BRIX as time passes” value ([1]; treated pears as time passes after treatment) of the same molecule?
The value was “soften and exhibit increases in % BRIX, indicating that the effect is temporary”.

What about the “soluble sugars measured in % BRIX” value [2] of the same molecule?
Its value is “decrease in soluble sugars measured in % BRIX in a dose dependent manner”.

What about the toxicity [3] of the same molecule?
The toxicity was “non-toxic”.
